{"source": "patent US20230348866A1", "about": "“BI[…] FOR THE PRODUCTION OF CANNABINOIDS AND OTHER […]” (The Regents of the University of California, priority 2019, published 2023)", "key": {"OA pathway": {"tested_on": "OA pathway", "assay": "RpMatB reaction system with added GPP and NphB M31^S", "format": "biochemical", "conditions": "increasing GPP (0.5-2 mM)", "procedure": "(§1) OA/DA Reaction Conditions using MatB. The conditions for reactions using RpMatB to produce malonyl-CoA were as follows: 15 mM malonate, 5 mM hexanoate or 5 mM butyrate, 1 mM CoA, 4 mM ATP, 25 mM creatine phosphate, 10 mM KCl, 5 mM MgCl2 and 50 mM Tris pH 8.0, 1.3 μM RpMatB, 4.9 μM CsAAE3, 2.9 μM CsOLS, 46.6 μM CsOAC, 7.6 μM GsPpase, 2.6 μM ADK and 2 units of CPK (from Sigma Aldrich). For the additive reactions GPP (0.5-2 mM), OA (0.25-2 mM) and DA (0.25-5 mM) were added before the reaction was initiated.\nIn an effort to reduce OA/DA inhibition, experiments were performed to remove OA/DA from the reaction as it is made by converting it directly into CBGA/CBGVA. To test this GPP and a stabilized CBGA synthase were added to the system (FIG. 6). The CBGA synthase used, NphB M31^S, is a stabilized version of the soluble enzyme designed previously (Valliere et al., Nat. Commun. 10:565, 2019). […] Experiments were performed to test the effect of GPP concentration on OA production. At just 500 μM GPP, OA production decreased 40% percent (FIG. 2C)."}, "[1]": {"tested_on": "MatB pathway (RpMatB, CsAAE3, CsOLS, CsOAC)", "assay": "OA/DA production using the MatB pathway with additives", "format": "biochemical", "conditions": "titer at 4 hours relative to control", "procedure": "as §1\nFor the time course, the reactions were quenched (see below) at various time points between 5 mins and 5 hours. The reactions with additives were quenched at 4 hours.\nHPLC Sample Analysis. All samples were quenched by 4-fold dilution into methanol (samples with a higher concentration of analyte were diluted up to 10-fold). The protein precipitate was removed by centrifugation at 16,000×g for 5 minutes and the supernatant was transferred to an LC vial for analysis.\nSamples were analyzed by reverse phase chromatography on a Syncronis C8 column (4.6×100 mm) using a Thermo Ultimate 3000 HPLC. The column compartment temperature was set to 40° C., and the flow rate was 1 mL/min. The sample inject volume was 20 μL (full loop). The compounds were separated using a gradient elution with water+0.1% TFA (solvent A) and acetonitrile+0.1% TFA (solvent B) as the mobile phase. Solvent B was held at 20% for the first minute. Then solvent B was increased to 95% B over 4 minutes, and held at 95% B for 3 minutes. The column was then re-equilibrated to 20% B for three minutes, for a total run time of 11 minutes. Standards were used to identify the retention time, and to produce an external standard curve for quantification."}, "OLS": {"biological_target": "T1, OLS (Cannabis sativa, UniProt B1Q2B6)", "T1 construct": "CsAAE3, CsOLS and CsOAC were synthesized and cloned into the pET28(+) vector with Nde1/Xho1 restriction sites; made in house; host or cells: E. coli C43 BL21 (DE3)", "T1 sequence (B1Q2B6 with tags, fused parts or gaps)": "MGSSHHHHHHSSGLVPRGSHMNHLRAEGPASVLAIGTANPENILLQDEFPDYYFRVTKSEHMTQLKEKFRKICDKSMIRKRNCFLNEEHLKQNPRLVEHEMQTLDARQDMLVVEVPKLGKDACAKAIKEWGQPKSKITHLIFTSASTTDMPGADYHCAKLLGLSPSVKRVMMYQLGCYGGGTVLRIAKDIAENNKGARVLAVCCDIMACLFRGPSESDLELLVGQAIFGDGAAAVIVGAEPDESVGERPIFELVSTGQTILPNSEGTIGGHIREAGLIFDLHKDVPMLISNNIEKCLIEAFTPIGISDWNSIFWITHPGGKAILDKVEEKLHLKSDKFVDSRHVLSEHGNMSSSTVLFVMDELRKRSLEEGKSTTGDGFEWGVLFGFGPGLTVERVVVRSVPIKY", "assay": "OLS activity assay (inhibition by OA/DA)", "format": "biochemical, C. sativa", "conditions": "for inhibition of OLS activity: individual enzymes screened, 250 μM OA or 1 mM DA", "procedure": "OLS Activity Assay. For the inhibition experiments the conditions were altered to: 1 mM malonyl-CoA, 400 μM hexanoyl-CoA in 50 mM citrate buffer, pH 5.5 in a final volume of 200 μL. Either 1% ethanol, 250 μM OA or 1 mM DA was added to the reaction, and then the reactions were initiated by adding 0.65 mg/mL OLS. 50 μL aliquots were quenched at 2, 4, 6 and 8 minutes in 150 μL of methanol. The reactions were vortexed briefly and centrifuged at 16,000×g for 2 minutes to pellet the proteins. The supernatant was analyzed by HPLC. The raw peak areas of HTAL, PDAL and olivetol were summed and plotted against time to determine the rate. The rate of the OA supplemented reaction and the DA supplemented reaction were normalized to the ethanol control."}}, "data": [{"smiles": "CC(C)=CCC/C(C)=C/COP(=O)(O)OP(=O)(O)O", "note": "[GPP, geranyl pyrophosphate]", "values": [{"measurement": "overall production of OA and CBGA", "setting": "OA pathway", "result": "decrease"}, {"measurement": "decrease of OA production", "setting": "[1]; 500 μM GPP added", "result": 40, "unit": "%"}]}, {"smiles": "CCCc1cc(O)cc(O)c1C(=O)O", "note": "[DA, divarinic acid]", "values": [{"measurement": "inhibition of OLS activity", "setting": "OLS", "result": "strongly inhibited"}, {"measurement": "reduction of OA production", "setting": "[1]; 1 mM DA added at time zero", "result": 30, "unit": "%"}]}, {"smiles": "CCCCCc1cc(O)cc(O)c1C(=O)O", "note": "[OA, olivetolic acid]", "values": [{"measurement": "inhibition of OLS activity", "setting": "OLS", "result": "strongly inhibited"}, {"measurement": "inhibition of enzyme activity, comparison among enzymes", "setting": "OLS; reaction relevant conditions", "result": "CsOLS is the most inhibited"}, {"measurement": "reduction of DA production", "setting": "[1]; 1 mM OA added at time zero", "result": 90, "unit": "%"}]}]}
